# According to paper PMC11532403 (Signal Transduction and Targeted Therapy, 2024):
# Read-outs that look alike come from different tables or passages of the source.
# Key:
# CYP2C8 = biological target: T1, CYP2C8 (Homo sapiens, UniProt P10632); experiment: CYP inhibition in human liver microsomes; format: in vitro ADME; conditions: 0.5-25 μM
# T1 construct: substrates of different CYP450 enzymes in mixed human liver microsomes; from tissue; host or cells: mixed human liver microsomes
# CYP1A2 = biological target: T2, CYP1A2 (Homo sapiens, UniProt P05177); experiment: CYP inhibition in human liver microsomes; format: in vitro ADME; conditions: 0.5-25 μM
# T2 construct: substrates of different CYP450 enzymes in mixed human liver microsomes; from tissue; host or cells: mixed human liver microsomes
# SD rats = experiment: Acute toxicity, single oral gavage; format: in vivo; conditions: acute toxicity study in SD rats
# [1] = Acute toxicity, single oral gavage; format: in vivo; conditions: SD, rat, in vivo, oral, read-out: MTD, single dose
# Pharmacokinetics in rats = format: in vivo, SD rats
# RET-driven xenografts = experiment: RET-driven xenograft models, overall; format: in vivo, mice; conditions: for Effective tumor suppressant dose (mg/kg): tumor-bearing mice
# Procedure: All procedures relating to animal handling, care, and treatment were performed according to the Beijing Laboratory Animal Management Regulations. 6-week-old male BALB/c nude mice were inoculated subcutaneously into the flank with Baf3-CCDC6-RET^WT (5*10^6 cells/ 0.1 mL/ each), Baf3-CCDC6-RET^M918T (5*10^6 cells/0.1 mL/each), Baf3-CCDC6-RET^V804M (5*10^6 cells/ 0.1 mL/ each), or HEK293T-KIF5B-RET^V804M (5*10^6 cells/ 0.1 mL/ each). Mice were randomized by tumor size into groups of 10 to 12 when tumor volume reached approximately 100-150 mm^3. […] Tumor size and body weight were measured two times each week, and tumor volume was calculated with the following formula: [length × (width)^2]/ 2. Statistical significance was calculated by using two-way ANOVA test to assess the difference in tumor volumes between the control (vehicle-treated) and treatment groups.
# Supplementary Figure S1. […] Mice bearing Baf3-CCDC6-RET^WT (a), Baf3-CCDC6-RET^M918T (b) and Baf3-CCDC6-RET^V804M (c) xenograft and time course of treatment. Data represent mean ± standard error of the mean (SEM). There were 12 mice in each group in both models. d, Mice bearing HEK293T-KIF5B-RET^V804M xenograft and time course of treatment. Data represent mean ± SEM. There were 10 mice in each group in this model. […] Statistical analysis was performed using a two-way ANOVA test. *, […]; **, p < 0.01; ***, p < 0.001; ****, p < 0.0001. Abbreviations: bid, bis in die; mc, methyl cellulose; mpk, mg/Kg.
# [2] = tested on: Baf3-KIF5B-RET V804M cells; experiment: Proliferation assay (CellTiter-Glo); format: cell-based, murine; conditions: Mus musculus, read-out: Cellular Viability IC50
# Procedure: The cell lines HEK293T, Baf3, TT cell and NIH-3T3 were obtained from the Cell Resource Center, Peking Union Medical College (PCRC). HEK293T and NIH-3T3 were maintained in DMEM high glucose medium (#C3113-0500, Vivacell) supplemented with 10 % FBS (#10500064, Gibco) and 1 % Penicillin-Streptomycin (#15140122, Gibco). The murine Pro‐B cell line Baf3 was cultured in RPMI 1640 medium (#C3010, Vivacell) supplemented with 10 % FBS, 1 % Penicillin-Streptomycin and 1 ng/mL recombinant murine interleukin-3 (#213-13, PeproTech). All stably transformed BaF3 cells were cultured in RPMI 1640 without IL‐3. The TT MTC cell was grown in Ham's F-12K medium (#21127022, Gibco) supplemented with 10 % FBS and 1 % Penicillin-Streptomycin. Cells were cultured at 37 °C under 5 % CO2 and high humidity conditions.
# KIF5B-RET, CCDC6-RET and mutations were cloned into pCDHL vector and were verified by sequencing. Reah RET expression vectors were separately co‐transfected with psPAX2 and pMD2.G packaging plasmids into 60-70% confluent HEK 293T cells maintained in 2 mL of culture medium in six‐well plates using Polyethyleneimine (PEI) transfection grade. Virus containing media was harvested after 48 h and filtered with 0.45 μm membrane and stored at -80 °C prior to infection. For infection of Ba/F3 cells, 1 mL of viral supernatant and 8 μg/mL polybrene were added to 5 million cells per well in six‐well plates. Infected cells were selected with the addition of 1 μg/mL puromycin for 2 weeks in RPMI-1640/ 10% FBS/ 1 ng/mL IL-3 medium. Subsquently, puromycin-resistant cells were cultured in IL-3-free medium for 1 week and RET fusion proteins were confirmed by immunoblot analysis.
# Cell viability was assessed by luminescence using CellTiter-Glo 2.0 assay (Promega). IC50 curve fitting was performed using GraphPad Prism 9.0.
# hERG potassium channel = hERG potassium channel (Homo sapiens, UniProt Q12809); experiment: hERG whole-cell patch clamp; format: cell-based; conditions: ± 368.5 nM, read-out: hERG current IC50
# Description: The rapidly activating potassium channel encoded by the human ether a-go-go-related gene (hERG) is an important ion channel involved in the formation of phase 3 repolarisation of the myocardial action potential. Pharmacological blockade of hERG channels can lead to prolonged cardiac repolarisation with the electrocardiographic manifestation of a prolonged QT interval, known as long QT interval syndrome. Drug-induced delayed ventricular repolarisation can in some cases lead to a fatal arrhythmia, tip-twist ventricular tachycardia.
# [3] = Liver microsome metabolic stability; format: in vitro ADME; conditions: 1 μM
# Description: The production of major metabolites in human liver microsomes is closer to that in rats or dogs than in mice or monkeys. The amounts of major metabolites produced in human liver microsomes was closer to the amount produced in […]. […] In addition to the same eight monophasic metabolites as in the in vitro study, five di-phasic metabolites, M6, M7, M8, M9 and M10, were detected in rat bile, but the peak areas of the di-phasic metabolites were much smaller than those of the monophasic metabolites.
# rat bone marrow cells = experiment: In vivo bone marrow micronucleus test
# Procedure: The bone marrow cell micronucleus test was positive in male rats at ≥100 mg/kg/day and in female rats at ≥300 mg/kg/day.
# [4] = both sexes, SD, rat, plasma, iv, 1 mg/kg i.v.
# [5] = both sexes, SD, rat, plasma, po, gavage 5 mg/kg
# [6] = both sexes, SD, rat, plasma, po, gavage 20 mg/kg
# [7] = both sexes, SD, rat, plasma, po, gavage 50 mg/kg
# hERG potassium channel, sequence (Q12809 whole entry): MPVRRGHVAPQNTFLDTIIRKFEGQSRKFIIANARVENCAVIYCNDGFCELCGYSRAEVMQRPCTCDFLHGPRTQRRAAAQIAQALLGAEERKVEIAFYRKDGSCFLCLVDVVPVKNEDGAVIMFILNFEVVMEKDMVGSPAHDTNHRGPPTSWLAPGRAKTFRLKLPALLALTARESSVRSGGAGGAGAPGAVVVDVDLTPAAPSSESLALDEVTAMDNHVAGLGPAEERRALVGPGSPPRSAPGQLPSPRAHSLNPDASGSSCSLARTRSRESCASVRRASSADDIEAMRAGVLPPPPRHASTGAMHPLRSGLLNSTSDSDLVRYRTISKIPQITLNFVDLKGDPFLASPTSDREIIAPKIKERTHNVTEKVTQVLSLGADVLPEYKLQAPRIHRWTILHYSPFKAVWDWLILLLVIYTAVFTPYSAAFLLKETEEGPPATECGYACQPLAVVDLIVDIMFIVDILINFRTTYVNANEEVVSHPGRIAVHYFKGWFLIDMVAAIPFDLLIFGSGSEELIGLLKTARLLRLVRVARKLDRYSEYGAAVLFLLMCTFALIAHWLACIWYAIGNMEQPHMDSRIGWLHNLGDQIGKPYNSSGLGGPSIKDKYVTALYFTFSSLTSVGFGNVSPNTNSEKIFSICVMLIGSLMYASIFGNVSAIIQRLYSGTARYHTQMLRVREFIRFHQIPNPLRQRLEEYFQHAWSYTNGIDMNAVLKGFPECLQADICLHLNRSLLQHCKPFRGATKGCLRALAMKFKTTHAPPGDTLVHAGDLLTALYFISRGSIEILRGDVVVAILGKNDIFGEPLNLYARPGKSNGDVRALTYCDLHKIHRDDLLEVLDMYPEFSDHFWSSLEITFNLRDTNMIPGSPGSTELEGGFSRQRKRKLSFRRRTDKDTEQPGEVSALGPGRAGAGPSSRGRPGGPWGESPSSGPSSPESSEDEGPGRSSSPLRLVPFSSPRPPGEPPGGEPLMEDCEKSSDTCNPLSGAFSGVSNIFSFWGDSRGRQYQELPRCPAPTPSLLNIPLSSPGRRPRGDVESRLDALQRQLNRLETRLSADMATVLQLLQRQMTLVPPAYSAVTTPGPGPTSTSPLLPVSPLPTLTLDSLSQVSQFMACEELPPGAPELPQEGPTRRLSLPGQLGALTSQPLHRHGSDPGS
# T1 sequence (P10632 whole entry): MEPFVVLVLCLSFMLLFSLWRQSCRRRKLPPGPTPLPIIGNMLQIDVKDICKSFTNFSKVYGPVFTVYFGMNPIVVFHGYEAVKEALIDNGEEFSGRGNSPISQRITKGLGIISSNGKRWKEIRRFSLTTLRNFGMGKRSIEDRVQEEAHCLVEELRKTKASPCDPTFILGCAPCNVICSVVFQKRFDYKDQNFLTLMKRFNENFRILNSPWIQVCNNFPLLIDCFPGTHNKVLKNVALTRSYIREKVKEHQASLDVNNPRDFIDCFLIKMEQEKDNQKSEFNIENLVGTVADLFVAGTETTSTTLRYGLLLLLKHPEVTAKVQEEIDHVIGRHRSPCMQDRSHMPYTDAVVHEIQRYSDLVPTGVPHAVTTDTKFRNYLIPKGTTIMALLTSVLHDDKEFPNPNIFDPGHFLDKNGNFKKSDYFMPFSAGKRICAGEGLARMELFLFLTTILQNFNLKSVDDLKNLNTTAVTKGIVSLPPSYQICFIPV
# T2 sequence (P05177 whole entry): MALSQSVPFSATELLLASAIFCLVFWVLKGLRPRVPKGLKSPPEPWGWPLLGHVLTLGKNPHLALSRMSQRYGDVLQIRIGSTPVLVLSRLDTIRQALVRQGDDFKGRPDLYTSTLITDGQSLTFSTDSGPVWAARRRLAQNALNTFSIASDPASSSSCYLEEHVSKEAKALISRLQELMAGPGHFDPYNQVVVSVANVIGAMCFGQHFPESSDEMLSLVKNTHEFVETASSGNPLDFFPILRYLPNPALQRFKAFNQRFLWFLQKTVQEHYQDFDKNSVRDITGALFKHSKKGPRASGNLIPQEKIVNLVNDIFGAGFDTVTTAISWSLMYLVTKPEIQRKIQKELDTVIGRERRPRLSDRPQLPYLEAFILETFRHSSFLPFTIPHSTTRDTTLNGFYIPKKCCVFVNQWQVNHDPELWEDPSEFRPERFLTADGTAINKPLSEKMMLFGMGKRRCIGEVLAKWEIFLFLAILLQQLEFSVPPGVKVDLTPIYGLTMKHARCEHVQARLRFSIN
smiles,measurement,setting,value
"COc1ccc(CN2C3CC2CN(c2ccc(-c4cc(N5CC(C)(O)C5)cn5ncc(C#N)c45)cn2)C3)cn1 [SY-5007, 6-(3-hydroxy-3-methylazetidin-1-yl)-4-(6-(6-((6-methoxypyridin-3-yl)methyl)-3,6-diazabicyclo[3.1.1]heptan-3-yl)pyridin-3-yl)pyrazolo[1,5-a]pyridine-3-carbonitrile]",IC50,CYP2C8,9.75 µM
same,IC50,CYP1A2,> 25 µM
same,Kidney: urea,SD rats,elevated urea
same,MTD,"[1]; female, females",500 mg/kg
same,MTD,"[1]; male, males",250 mg/kg
same,clearance,Pharmacokinetics in rats; [4],3.42 mL/min/kg
same,half-life,Pharmacokinetics in rats; [4],3.34 h
same,Vd,"Pharmacokinetics in rats; both sexes, SD, rat, plasma, iv, 1 mg/kg i.v., read-out: Vss",0.697 L/kg
same,AUC(0-inf),Pharmacokinetics in rats; [5],11900 ng·h/mL
same,Cmax,Pharmacokinetics in rats; [5],2190 ng/mL
same,AUC(0-inf),Pharmacokinetics in rats; [6],48100 ng·h/mL
same,Cmax,Pharmacokinetics in rats; [6],7150 ng/mL
same,AUC(0-inf),Pharmacokinetics in rats; [7],112000 ng·h/mL
same,Cmax,Pharmacokinetics in rats; [7],12600 ng/mL
same,half-life,"Pharmacokinetics in rats; both sexes, SD, rat, plasma, po, gavage 5-50 mg/kg",3.61 to 4.49 h
same,MRT inf,"Pharmacokinetics in rats; both sexes, SD, rat, plasma, po, gavage 5-50 mg/kg, read-out: MRTINF_obs",4.92 to 6.96 h
same,bioavailability,"Pharmacokinetics in rats; both sexes, SD, rat, plasma, po, gavage 5-50 mg/kg, read-out: Oral bioavailability (F)",39.1 to 42.1%
same,Tmax,"Pharmacokinetics in rats; both sexes, SD, rat, plasma, po, single gavage 5, 20, 50 mg/kg",0.25 to 2 h
same,AUC0-24h increase day 7 vs day 1,"Pharmacokinetics in rats; males, 20 mg/kg once daily 7 days",47.3%
same,Minimal effective dose (significant tumor growth inhibition in most models),"RET-driven xenografts; mouse, in vivo",10 mg/kg BID
same,Effective tumor suppressant dose (mg/kg),RET-driven xenografts; daily dose of 3 mg/kg BID,6(3 mg/kg BID)
same,Effective tumor suppressant dose (mg/kg),RET-driven xenografts; daily dose of 6 mg/kg BID,12(6 mg/kg BID)
same,IC50,[2],0.0453 µM
same,IC50,hERG potassium channel,3.3 µM
same,Metabolic half-time,[3]; dog liver microsomes,280 min
same,Metabolic half-time,[3]; human liver microsomes,166 min
same,Metabolic half-time,[3]; monkey liver microsomes,57.9 min
same,Metabolic half-time,[3]; mouse liver microsomes,109 min
same,Metabolic half-time,[3]; rat liver microsomes,384 min
same,Dose at which micronucleus test positive,rat bone marrow cells; female rats,≥ 300 mg/kg/day
same,Dose at which micronucleus test positive,rat bone marrow cells; male rats,≥ 100 mg/kg/day
